Laboratory results taken from publication PMC11277489, “Novel Piperazine Derivatives of Vindoline as Anticancer Agents” (International Journal of Molecular Sciences, 2024).

Tests used:
Type in all cases: cell-based
NCI-H460 = experiment: NCI60 five-dose screen, Non-small Cell Lung Cancer; settings: Homo sapiens; NCI-H460, Non-small Cell Lung Cancer; five-dose screen; read-out: GI50
UO-31 = experiment: NCI60 five-dose screen, Renal Cancer; settings: Homo sapiens; UO-31, Renal Cancer; five-dose screen; read-out: GI50
SR = experiment: NCI60 five-dose screen, Leukemia; settings: Homo sapiens, Leukemia, five-dose screen, read-out: GI50
RXF 393 = experiment: NCI60 five-dose screen, Renal Cancer; settings: Homo sapiens, RXF 393, Renal Cancer
HT29 = experiment: NCI60 five-dose screen, Colon Cancer; settings: Homo sapiens, HT-29; HT29, Colon Cancer; five-dose screen; read-out: GI50
NCI-H226 = experiment: NCI60 five-dose screen, Non-small Cell Lung Cancer; settings: Homo sapiens; NCI-H226, Non-small Cell Lung Cancer; five-dose screen; read-out: GI50
BT-549 = experiment: NCI60 five-dose screen, Breast Cancer; settings: Homo sapiens; BT-549, Breast Cancer; five-dose screen; read-out: GI50
PC-3 = experiment: NCI60 five-dose screen, Prostate Cancer; settings: Homo sapiens; PC-3, Prostate Cancer; five-dose screen; read-out: GI50
786–0 = experiment: NCI60 five-dose screen, Renal Cancer; settings: Homo sapiens; 786–0, Renal Cancer; five-dose screen; read-out: GI50
K-562 = experiment: NCI60 five-dose screen, Leukemia; settings: Homo sapiens, K562; K-562, Leukemia; five-dose screen; read-out: GI50
CCRF-CEM = experiment: NCI60 five-dose screen, Leukemia; settings: Homo sapiens, Leukemia, five-dose screen, read-out: GI50
SW-620 = experiment: NCI60 five-dose screen, Colon Cancer; settings: Homo sapiens; SW-620, Colon Cancer; five-dose screen; read-out: GI50
SF-268 = experiment: NCI60 five-dose screen, CNS Cancer; settings: Homo sapiens; SF-268, CNS Cancer; five-dose screen; read-out: GI50
TK-10 = experiment: NCI60 five-dose screen, Renal Cancer; settings: Homo sapiens; TK-10, Renal Cancer; five-dose screen; read-out: GI50
MALME-3M = experiment: NCI60 five-dose screen, Melanoma; settings: Homo sapiens; MALME-3M, Melanoma; five-dose screen; read-out: GI50
MOLT-4 = experiment: NCI60 five-dose screen, Leukemia; settings: Homo sapiens; MOLT-4, Leukemia; five-dose screen; read-out: GI50
SK-MEL-28 = experiment: NCI60 five-dose screen, Melanoma; settings: Homo sapiens; SK-MEL-28, Melanoma; five-dose screen; read-out: GI50
SF-539 = experiment: NCI60 five-dose screen, CNS Cancer; settings: Homo sapiens; SF-539, CNS Cancer; five-dose screen; read-out: GI50
SF-295 = experiment: NCI60 five-dose screen, CNS Cancer; settings: Homo sapiens; SF-295, CNS Cancer; five-dose screen; read-out: GI50
NCI/ADR-RES = experiment: NCI60 five-dose screen, Ovarian Cancer; settings: Homo sapiens, Ovarian Cancer, five-dose screen, read-out: GI50
OVCAR-5 = experiment: NCI60 five-dose screen, Ovarian Cancer; settings: Homo sapiens; OVCAR-5, Ovarian Cancer; five-dose screen; read-out: GI50
IGROV1 = experiment: NCI60 five-dose screen, Ovarian Cancer; settings: Homo sapiens, IGROV-1; IGROV1, Ovarian Cancer; five-dose screen; read-out: GI50
A549/ATCC = experiment: NCI60 five-dose screen, Non-small Cell Lung Cancer; settings: Homo sapiens; A549/ATCC, Non-small Cell Lung Cancer; five-dose screen; read-out: GI50
NCI-H522 = experiment: NCI60 five-dose screen, Non-small Cell Lung Cancer; settings: Homo sapiens; NCI-H522, Non-small Cell Lung Cancer; five-dose screen; read-out: GI50
SK-MEL-2 = experiment: NCI60 five-dose screen, Melanoma; settings: Homo sapiens; SK-MEL-2, Melanoma; five-dose screen; read-out: GI50
MDA-MB-435 = experiment: NCI60 five-dose screen, Melanoma; settings: Homo sapiens; MDA-MB-435, Melanoma; five-dose screen; read-out: GI50
HS 578T = experiment: NCI60 five-dose screen, Breast Cancer; settings: Homo sapiens; HS 578T, Breast Cancer; five-dose screen; read-out: GI50
HCT-116 = experiment: NCI60 five-dose screen, Colon Cancer; settings: Homo sapiens; HCT-116, Colon Cancer; five-dose screen; read-out: GI50
T-47D = experiment: NCI60 five-dose screen, Breast Cancer; settings: Homo sapiens, T47D; T-47D, Breast Cancer; five-dose screen; read-out: GI50
HOP-62 = experiment: NCI60 five-dose screen, Non-small Cell Lung Cancer; settings: Homo sapiens; HOP-62, Non-small Cell Lung Cancer; five-dose screen; read-out: GI50
NCI-H23 = experiment: NCI60 five-dose screen, Non-small Cell Lung Cancer; settings: Homo sapiens; NCI-H23, Non-small Cell Lung Cancer; five-dose screen; read-out: GI50
HCC-2998 = experiment: NCI60 five-dose screen, Colon Cancer; settings: Homo sapiens; HCC-2998, Colon Cancer; five-dose screen; read-out: GI50
EKVX = experiment: NCI60 five-dose screen, Non-small Cell Lung Cancer; settings: Homo sapiens, Non-small Cell Lung Cancer, five-dose screen, read-out: GI50
A498 = experiment: NCI60 five-dose screen, Renal Cancer; settings: Homo sapiens; A498, Renal Cancer; five-dose screen; read-out: GI50
SNB-75 = experiment: NCI60 five-dose screen, CNS Cancer; settings: Homo sapiens; SNB-75, CNS Cancer; five-dose screen; read-out: GI50
HL-60(TB) = experiment: NCI60 five-dose screen, Leukemia; settings: Homo sapiens; HL-60(TB), Leukemia; five-dose screen; read-out: GI50
SK-MEL-5 = experiment: NCI60 five-dose screen, Melanoma; settings: Homo sapiens; SK-MEL-5, Melanoma; five-dose screen; read-out: GI50

Structure (SMILES) | GI50 (NCI-H460) | GI50 (UO-31) | GI50 (SR) | GI50 (RXF 393) | GI50 (HT29) | GI50 (NCI-H226) | GI50 (BT-549) | GI50 (PC-3) | GI50 (786–0) | GI50 (K-562) | GI50 (CCRF-CEM) | GI50 (SW-620) | GI50 (SF-268) | GI50 (TK-10) | GI50 (MALME-3M) | GI50 (MOLT-4) | GI50 (SK-MEL-28) | GI50 (SF-539) | GI50 (SF-295) | GI50 (NCI/ADR-RES) | further results
CCC12C=CCN3CCC4(c5cc(NC(=O)CN6CCN(C(c7ccc(F)cc7)c7ccc(F)cc7)CC6)c(OC)cc5N(C)C4C(O)(C(=O)OC)C1OC(C)=O)C32 (centres unmarked) [Compound 20] | 3.16 µM | 5.25 µM | 2 µM | 2.69 µM | 2.88 µM | 6.31 µM | 2.57 µM | 4.47 µM | 7.76 µM | 3.16 µM | 2.88 µM | 3.98 µM | 5.13 µM | 7.59 µM | 8.13 µM | 2.14 µM | 12.3 µM | 4.07 µM | 3.47 µM | 4.47 µM | GI50 (OVCAR-5): 3.55 µM; GI50 (IGROV1): 7.94 µM; GI50 (A549/ATCC): 4.37 µM; GI50 (NCI-H522): 10.2 µM; GI50 (SK-MEL-2): 3.02 µM; GI50 (MDA-MB-435): 3.89 µM; GI50 (HS 578T): 5.89 µM; GI50 (HCT-116): 3.09 µM; GI50 (T-47D): 3.55 µM; GI50 (HOP-62): 89.1 µM; GI50 (NCI-H23): 6.76 µM; GI50 (HCC-2998): 3.89 µM; GI50 (EKVX): 4.07 µM; GI50 (A498): 5.62 µM; GI50 (SNB-75): 1.82 µM; GI50 (HL-60(TB)): 2.19 µM; GI50 (SK-MEL-5): 2.34 µM
CC[C@]12C=CCN3CC[C@@]4(c5ccc(OC)cc5N(C)[C@H]4[C@@](O)(C(=O)OC)[C@@H]1OC(=O)CCCN1CCN(c4ccc(C(F)(F)F)cc4)CC1)[C@@H]32 [Compound 22] | 1.86 µM | 1.86 µM | 1.7 µM | 1.55 µM | 1.74 µM | 2.88 µM | 3.02 µM | 2.45 µM | 2.57 µM | 1.41 µM | 1.86 µM | 2.95 µM | 3.63 µM | 2.88 µM | 1.58 µM | 1.95 µM | 1.95 µM | 1.78 µM | 1.95 µM | 2.29 µM | GI50 (OVCAR-5): 4.07 µM; GI50 (IGROV1): 2 µM; GI50 (A549/ATCC): 2.95 µM; GI50 (NCI-H522): 1.91 µM; GI50 (SK-MEL-2): 2.19 µM; GI50 (MDA-MB-435): 1.7 µM; GI50 (HS 578T): 2.82 µM; GI50 (HCT-116): 1.91 µM; GI50 (T-47D): 3.02 µM; GI50 (HOP-62): 3.02 µM; GI50 (NCI-H23): 4.57 µM; GI50 (HCC-2998): 1.82 µM; GI50 (EKVX): 3.09 µM; GI50 (A498): 3.72 µM; GI50 (SNB-75): 1.66 µM; GI50 (HL-60(TB)): 1.66 µM; GI50 (SK-MEL-5): 1.7 µM
